Here are results for one compound from patent publication US12534436B2, “Disubstituted adamantyl derivative or pharmaceutically acceptable salt thereof, and pharmaceutical composition for suppressing cancer growth comprising same as active ingredient” (ONECUREGEN CO., LTD., priority 2020, dated 2026).

One test has as its system various cancer cells. The experiment in a line: Cell viability by methylene blue colorimetric assay, various cancer cells. The format is cell-based. The conditions noted are these: Homo sapiens; range over the cancer cell lines, methylene blue assay (FIG. 1B); read-out: GI50, proliferation of various cancer cells. The protocol:
Among the newly synthesized adamantyl compounds, it was evaluated how compound 21c (LW1564, Compound 21-3), FIG. 1A) affected proliferation suppression of various cancer cells. Human breast cancer cells (MCF7), human cervical cancer cells (HeLa), human colorectal cancer cells (HCT116, HCT15, LoVo, SW480, SW620 and WiDr), human fibrosarcoma cells (HT1080), human gastric cancer cells (NCI-N87, NUGC3 and SNU484), human liver cancer cells (HepG2, HT17, Huh7, SHJ1 and SK-Hep1), human lung cancer cells (A549 and H1299), human pancreatic cancer cells (AsPC1 and MIA-PaCa2) and normal lung fibroblasts (CCD-34Lu and WI-38) were purchased from the American Type Culture Collection (Manassas, Virginia, USA) or KRIBB Cell Line Bank (Daejeon). For cell culture, cells were cultured in a DMEM medium (Gibco, Grand Island, New York, USA) supplemented with 5% (v/v) fetal bovine serum (WelGENE, Daegu, Korea) and 100 U/ml penicillin and 100 μg/ml streptomycin (Gibco). Cells were maintained at 37° C. in a humidified incubator with 5% CO2, and hypoxia and a multi-gas incubator (Sanyo, Osaka, Japan) was adjusted to 1% O2, 94% N2 and 5% CO2. Cell viability was determined by methylene blue colorimetric assay as described in the “Chou, T. C. […] The dye was eluted with 0.1% HCl (v/v) and quantified at 600 nm on a Molecular Devices EMax (Molecular Devices, CA, USA). […]

The subject of test [1] is GLUT1, PDK1 and VEGF mRNA. As to the kind of experiment: qPCR of HIF-1 target genes in HepG2 cells. It counts as cell-based, human. To be noted: hypoxia, HepG2 cells (FIG. 2E). The protocol: Next, mRNA levels of HIF-1 target genes GLUT1, PDK1 and VEGF were measured. The primer sequences were Fwd 5′-TTTGGCTACAACACTGGAGTC-3′ (SEQ ID NO: 1) and Rev 5′-CATGCCCCCAACAGAAAAGAT-3′ (SEQ ID NO: 2) for GLUT1; Fwd 5′-CAGGACAGCCAATACAAGTGG-3′ (SEQ ID NO: 3) and Rev 5′-CATTACCCAGCGTGACATGAA-3′ (SEQ ID NO: 4) for PDK1; Fwd 5′-CCTTGCTGCTCTACCTCCAC-3′ (SEQ ID NO: 5) and Rev 5′-ATGATTCTGCCCTCCTCCTT-3′ (SEQ ID NO: 6) for VEGFA; and Fwd 5′-CATAGGAAGCTGGGAGCAAG-3′ (SEQ ID NO: 7) and Rev 5′-GCCCTCCAATCAGTCTTCTG-3′ (SEQ ID NO: 8) for RPL13A. […] Taken together, it was identified that LW1564 (compound 21-3) suppressed HIF-1α accumulation through stimulated proteasome degradation, thereby reducing the mRNA expression of the target gene.
For orientation: In qPCR the cycle at which signal appears reflects the starting amount.

The subject of the next test is Complex IV. The experiment in a line: Mitochondrial respiration assay, complex IV (ascorbate/TMPD). It counts as cell-based, human. To be noted: HepG2 cells (FIG. 4D). The protocol: Compounds that suppress mitochondrial respiration promote degradation of HIF-1α by increasing cellular oxygen content. Accordingly, it was investigated whether LW1564 (compound 21-3) affected mitochondrial respiration by measuring the oxygen consumption rate (OCR). Oxygen consumption was measured using an Oxytherm Clark-type electrode system (Hansatech, Norfolk, UK) (Chou, T. C. Theoretical basis, experimental design, and computerized simulation of synergism and antagonism in drug combination studies. Pharmacol. Rev. 58, 621-681 (2006)). HepG2 cells (2×10^7) were cultured with 2 μM LW1564 (compound 21-3) for 6 hours, collected, and then OCR was measured at 37° C. for 5 minutes with a thermoregulated controlled circulating system. For […] studies, digitonin-permeabilised HepG2 cells (2×10^7) were read on a detection device containing 2 ml of respiratory buffer (0.25 M sucrose, 2 mM KH2PO4, 5 mM MgCl2, 1 mM EDTA, 1 mM ADP, 20 mM MOPS, pH 7.4). The following substrates, which provide electrons to the components in the ETC, were then added: 5 mM sodium pyruvate, 5 mM sodium malate, 5 mM sodium succinate, 5 mM L-ascorbic acid and 0.2 mM N,N,N,N-tetra methyl-p-phenylenediamine (TMPD). Complex I, III and IV inhibitors (rotenone, antimycin A and KCN, respectively) were added to a final concentration of 1 μM. […]

For the next test, the system named is lipid synthesis. As to the kind of experiment: Nile red staining of lipid accumulation in HepG2 cells. The format is cell-based, human. To be noted: 24 hours (FIG. 5B). The procedure:
In order to explore this possibility, the effect of LW1564 (compounds 21-3) on lipid synthesis using Nile red, a fluorescent probe that binds to hydrophobic molecules such as lipid droplets was evaluated. Nile red staining was performed as described in “1. Huang, D. et al. HIF-1-mediated suppression of acyl-CoA dehydrogenases and fatty acid oxidation is critical for cancer progression. Cell Rep. 8, 1930-1942 (2014).” HepG2 cells were treated with LW1564 (compound 21-3) for 24 hours and then stained with 200 nM Nile Red and 1 μM Calcein AM for 10 minutes. Data were collected and analyzed with an IncuCyte ZOOM® system (Essen BioScience). For normalization, cell viability was measured using a cell-permeant fluorescent dye, Calcein AM.

Take `COc1cc2c(cc1OC)CN(C(=O)C13CC4CC(C1)CC(c1ccc(OCC(=O)N5CCN(Cc6ccc(C(F)(F)F)cc6)CC5)cc1)(C4)C3)CC2` [Compound 21c, 2-(4-(3-(6,7-Dimethoxy-1,2,3,4-tetrahydroisoquinoline-2-carbonyl)adamantan-1-yl)phenoxy)-1-(4-(4-(trifluoromethyl)benzyl)piperazin-1-yl) ethanone]: the GI50 in the test with various cancer cells was in the range of 400 to 4600 nM. In test [1], the “mRNA amount of HIF-1 target genes GLUT1, PDK1 and VEGF” value was “decreased the mRNA amount of GLUT1, PDK1 and VEGF”. Moreover, the “oxygen consumption rate in the presence of ascorbate/TMPD” value with Complex IV is “did not affect the oxygen consumption rate”. Further, the “lipid accumulation (Nile red)” value in the test with lipid synthesis is “reduced lipid accumulation in a concentration-dependent manner”.
